The source of these data is patent publication US8829167B2, “Foliamangiferosides, preparation method and use thereof” (Tianjin University of Traditional Chinese Medicine, priority 2009, dated 2014).

In the experiment the target is T1, α-glucosidase derived from rat intestines (Rattus norvegicus, UniProt P23739).
T1 construct: The brush border membrane is scraped; from tissue; host or cells: Wistar male rat jejunum, brush border membrane (crude preparation)
Kind of experiment: α-glucosidase inhibiting activity (sucrose hydrolysis by rat intestinal brush border crude enzyme, glucose assay kit). It counts as biochemical. Particulars: for inhibition of the conversion of sucrose into glucose under the catalysis of α-glucosidase in intestines (in words): in vitro; for Inhibition ratio: sucrose substrate, 37° C., 30 min. On the procedure: The research process of α-glucosidase inhibiting activity: A Wistar male rat (body weight: about 200 g) is sacrificed by decapitation. The jejunum is taken out. The brush border membrane is scraped and then mixed into 0.1 M maleic acid buffer solution (pH 6.0). The mixture is used as α-glucosidase crude enzyme. 50 uL of sample solution dissolved in 2.5% DMSO is added into 100 uL of […] sucrosebase solution, into which 50 uL of the α-glucosidase solution derived from rat intestines is added. The mixture is reacted for 30 minutes at 37° C. before adding 800 uL of water and placing into boiling water bath for 2 minutes to be inactivated. The amount of the glucose produced is assayed with glucose assay kits.
Preparation of Sample Solution Group
0.1 M of maleic acid aqueous solution is mixed with 0.1 M of sodium maleate aqueous solution. The mixture is adjusted to pH 6.0 and is used as 0.1 M of maleic acid buffer solution. A sample is dissolved into DMSO solution and diluted 10 times with 0.1 M of maleic acid buffer solution. A sample solution is obtained and ready to use.
Sample group: The group in which a sample is added according to the experimental procedure described above (the samples are foliamangiferoside A (obtained in example 1) and foliamangiferoside B (obtained in example 2)); Control group: The group in which 2.5% DMSO solution is added according to the experimental procedure described above; Blank group: The type and amount of the agents are the same with those in sample group except that 800 uL of water is added immediately after 50 uL of the α-glucosidase solution derived from rat intestines is added, then the mixture is placed into a boiling water bath for 2 minutes to conduct inactivation. Furthermore, the similar experiments are conducted with ethanolic extracts of mango leaves (the product obtained in step 1 of example 1).
The following equation is used to calculate the inhibition ratio (%): inhibition ratio (%)=(A−B)/(A−C)*100
wherein, A is the absorbance of control group, B is the absorbance of sample group and C is the absorbance of blank group.

T1 sequence (P23739 whole entry): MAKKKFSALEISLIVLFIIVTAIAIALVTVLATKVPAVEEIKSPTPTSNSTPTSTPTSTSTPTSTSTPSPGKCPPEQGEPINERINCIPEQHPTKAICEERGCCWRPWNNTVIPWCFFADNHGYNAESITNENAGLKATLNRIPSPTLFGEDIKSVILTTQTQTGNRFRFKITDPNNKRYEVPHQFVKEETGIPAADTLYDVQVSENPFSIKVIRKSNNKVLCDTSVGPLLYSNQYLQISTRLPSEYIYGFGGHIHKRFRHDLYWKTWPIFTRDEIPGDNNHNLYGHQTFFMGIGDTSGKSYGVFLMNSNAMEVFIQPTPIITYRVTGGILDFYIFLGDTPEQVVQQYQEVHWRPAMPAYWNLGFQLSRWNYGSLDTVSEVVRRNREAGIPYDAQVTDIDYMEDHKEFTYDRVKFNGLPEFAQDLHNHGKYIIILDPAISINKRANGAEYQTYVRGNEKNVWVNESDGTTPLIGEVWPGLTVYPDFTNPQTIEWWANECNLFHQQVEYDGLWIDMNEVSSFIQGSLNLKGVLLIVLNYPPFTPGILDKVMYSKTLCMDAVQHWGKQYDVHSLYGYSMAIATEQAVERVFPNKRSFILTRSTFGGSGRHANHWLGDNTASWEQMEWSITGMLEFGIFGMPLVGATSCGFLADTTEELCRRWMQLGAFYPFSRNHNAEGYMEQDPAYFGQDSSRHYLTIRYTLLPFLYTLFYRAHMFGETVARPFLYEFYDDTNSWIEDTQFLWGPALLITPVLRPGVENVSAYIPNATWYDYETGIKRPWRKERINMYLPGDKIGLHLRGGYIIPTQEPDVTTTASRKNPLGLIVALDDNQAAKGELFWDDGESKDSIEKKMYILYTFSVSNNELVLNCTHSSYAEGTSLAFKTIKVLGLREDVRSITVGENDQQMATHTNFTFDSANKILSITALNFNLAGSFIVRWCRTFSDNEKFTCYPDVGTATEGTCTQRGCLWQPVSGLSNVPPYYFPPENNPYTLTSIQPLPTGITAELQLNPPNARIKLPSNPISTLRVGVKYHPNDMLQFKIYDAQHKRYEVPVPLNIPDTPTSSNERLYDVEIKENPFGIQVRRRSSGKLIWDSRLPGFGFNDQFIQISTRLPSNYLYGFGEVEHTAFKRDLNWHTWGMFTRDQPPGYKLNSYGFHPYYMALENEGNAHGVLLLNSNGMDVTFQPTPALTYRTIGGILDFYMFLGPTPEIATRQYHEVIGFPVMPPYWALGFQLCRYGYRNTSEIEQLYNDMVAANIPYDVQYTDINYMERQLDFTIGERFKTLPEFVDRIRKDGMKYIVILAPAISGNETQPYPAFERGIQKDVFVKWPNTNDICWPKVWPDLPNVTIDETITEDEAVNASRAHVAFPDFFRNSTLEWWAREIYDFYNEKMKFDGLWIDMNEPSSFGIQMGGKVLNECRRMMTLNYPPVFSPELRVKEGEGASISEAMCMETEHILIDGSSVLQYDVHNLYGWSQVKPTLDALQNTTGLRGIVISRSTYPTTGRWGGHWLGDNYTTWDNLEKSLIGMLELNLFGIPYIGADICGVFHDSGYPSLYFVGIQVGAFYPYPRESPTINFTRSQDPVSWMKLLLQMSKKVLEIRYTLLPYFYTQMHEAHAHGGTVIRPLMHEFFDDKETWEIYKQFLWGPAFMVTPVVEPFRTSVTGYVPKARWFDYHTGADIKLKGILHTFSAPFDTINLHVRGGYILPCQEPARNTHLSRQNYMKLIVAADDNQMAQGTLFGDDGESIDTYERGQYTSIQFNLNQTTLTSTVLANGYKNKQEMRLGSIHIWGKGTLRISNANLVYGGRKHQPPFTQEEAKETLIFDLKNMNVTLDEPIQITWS

In the case of `COc1cc(C(=O)c2c(O)cc(OC)c([C@@H]3OC(CO)[C@@H](O)C(O)C3O)c2O)ccc1O` (some centres unmarked) [Foliamangiferoside B, foliamangiferoside B], the “inhibition of the conversion of sucrose into glucose under the catalysis of α-glucosidase in intestines (in words)” value is “can effectively inhibit”. In addition, where the note is “sample 50 uM”, the “Sample group Conc. of glucose hydrolyzed” value worked out at 5.23 mg/dL and the Inhibition ratio is 19.6%. Moreover, under “sample 100 uM”, the “Sample group Conc. of glucose hydrolyzed” value was determined as 4.64 mg/dL and the Inhibition ratio is given as 23.9%. Besides, for the setting “sample 200 uM”, the “Sample group Conc. of glucose hydrolyzed” value was found to be 4.12 mg/dL and the Inhibition ratio was 29.6%. Also, under “sample 400 uM”, the “Sample group Conc. of glucose hydrolyzed” value came out at 3.71 mg/dL and the Inhibition ratio stood at 45.6%. The Inhibition ratio (sample 400 uM, listed as foliamangiferoside B) was 45.6%.

`COc1cc(O)c(C(=O)c2ccc(O)cc2)c(O)c1[C@@H]1O[C@H](CO)[C@@H](O)[C@H](O)[C@H]1O` [Foliamangiferoside A, foliamangiferoside A]: the “inhibition of the conversion of sucrose into glucose under the catalysis of α-glucosidase in intestines (in words)” value is given as “can effectively inhibit”. Under “sample 50 uM”, the “Sample group Conc. of glucose hydrolyzed” value was found to be 5.23 mg/dL and the Inhibition ratio is recorded as 15.8%. For the same compound, under “sample 100 uM”, the “Sample group Conc. of glucose hydrolyzed” value worked out at 4.64 mg/dL and the Inhibition ratio is 20.2%. Where the note is “sample 200 uM”, the “Sample group Conc. of glucose hydrolyzed” value worked out at 4.12 mg/dL and the Inhibition ratio was found to be 26.2%. Where the note is “sample 400 uM”, the “Sample group Conc. of glucose hydrolyzed” value came out at 3.09 mg/dL and the Inhibition ratio is 58.2%. Moreover, the Inhibition ratio (sample 400 uM, listed as foliamangiferoside A) was determined as 58.2%.
